Measurements taken from ChEMBL document CHEMBL1201862, “PubChem BioAssay data set” (2004).
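Where inhibition never reached the appropriate level, the endpoint shown equals the highest concentration tested. Otherwise, values were interpolated linearly from a five-concentration, 48-hour dose response in 96-well plates. Abbreviation: GI50, concentration required for 50% inhibition of growth.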 Active and inactive are the calls of the source. Rule as the data show it: active = GI50 up to about 1.1 µM and inactive = higher.

Legend:
Experiment in all cases: NCI tumour cell line growth inhibition, 48 h
SNB-78 = system: SNB-78
LXFL 529 = system: LXFL 529
SNB-19 = system: SNB-19
TK-10 = system: TK-10
HCT-116 = system: HCT-116
U-251 = system: U-251
ACHN = system: ACHN
KM12 = system: KM12
UO-31 = system: UO-31
HCT-15 = system: HCT-15
MOLT-4 = system: MOLT-4
COLO 205 = system: COLO 205
SR = system: SR
CCRF-CEM = system: CCRF-CEM
OVCAR-4 = system: OVCAR-4
EKVX = system: EKVX

CCOC(=O)[C@H]1Nc2ccc([N+](=O)[O-])cc2C2c3ccccc3CC21 (stereo partly specified) was tested, and the GI50 (SNB-78) was 42.1 µM (inactive), the GI50 (LXFL 529) was 5.79 µM (inactive) and the GI50 (SNB-19) was 28.4 µM (inactive). The GI50 (TK-10) was 27.4 µM (inactive), the GI50 (HCT-116) was 16.7 µM (inactive) and the GI50 (U-251) was 16.1 µM (inactive). For the same molecule, the GI50 (ACHN) was 23.6 µM (inactive), the GI50 (KM12) was 29.9 µM (inactive) and the GI50 (UO-31) was 15 µM (inactive). For the same molecule, the GI50 (HCT-15) was 15.3 µM, the GI50 (MOLT-4) was 5.12 µM (inactive) and the GI50 (COLO 205) was 30.9 µM (inactive). For the same molecule, the GI50 (SR) was 9.93 µM (inactive), the GI50 (CCRF-CEM) was 0.337 µM (active) and the GI50 (OVCAR-4) was 18.4 µM (inactive).

For COc1cc2cc3c4c(cc(OC)c(OC)c4c2cc1OC)CCN3C(=O)CCCC(=O)O, the GI50 (SNB-78) was 48.1 µM (inactive), the GI50 (LXFL 529) was > 100 µM (inactive) and the GI50 (SNB-19) was > 100 µM (inactive). The GI50 (TK-10) was > 100 µM (inactive), the GI50 (HCT-116) was > 100 µM (inactive) and the GI50 (EKVX) was > 100 µM (inactive). For the same molecule, the GI50 (U-251) was > 100 µM (inactive), the GI50 (ACHN) was > 100 µM (inactive) and the GI50 (KM12) was > 100 µM (inactive). The GI50 (UO-31) was > 100 µM (inactive), the GI50 (MOLT-4) was > 100 µM (inactive) and the GI50 (COLO 205) was > 100 µM (inactive). For the same molecule, the GI50 (SR) was > 100 µM (inactive), the GI50 (CCRF-CEM) was > 100 µM (inactive) and the GI50 (OVCAR-4) was 34.8 µM (inactive).

For O=C(Nc1ccc(Cl)cc1)C1C(=O)C(=O)N(c2ccc(Cl)cc2)C1=O (stereo unspecified), the GI50 (SNB-78) was 54 µM (inactive), the GI50 (LXFL 529) was 59.2 µM (inactive) and the GI50 (SNB-19) was 76.7 µM (inactive). For the same molecule, the GI50 (TK-10) was > 100 µM (inactive), the GI50 (HCT-116) was 53.7 µM (inactive) and the GI50 (EKVX) was > 100 µM (inactive). For the same molecule, the GI50 (U-251) was 58.6 µM (inactive), the GI50 (ACHN) was 89.9 µM (inactive) and the GI50 (KM12) was > 100 µM (inactive). For the same molecule, the GI50 (UO-31) was 79.6 µM (inactive), the GI50 (HCT-15) was 35.9 µM and the GI50 (MOLT-4) was 71.3 µM (inactive). The GI50 (COLO 205) was > 100 µM (inactive), the GI50 (SR) was > 100 µM (inactive) and the GI50 (CCRF-CEM) was 73.6 µM (inactive).

In the case of CN/C(=N\C#N)N(Cc1ccccc1)Cc1ccccc1, the GI50 (SNB-78) was > 100 µM (inactive), the GI50 (LXFL 529) was > 100 µM (inactive) and the GI50 (SNB-19) was > 100 µM (inactive). For the same molecule, the GI50 (TK-10) was > 100 µM (inactive), the GI50 (HCT-116) was > 100 µM (inactive) and the GI50 (EKVX) was > 100 µM (inactive). For the same molecule, the GI50 (U-251) was > 100 µM (inactive), the GI50 (ACHN) was > 100 µM (inactive) and the GI50 (KM12) was > 100 µM (inactive). The GI50 (UO-31) was > 100 µM (inactive), the GI50 (HCT-15) was greater than 100 µM and the GI50 (MOLT-4) was > 100 µM (inactive). The GI50 (COLO 205) was > 100 µM (inactive), the GI50 (SR) was > 100 µM (inactive) and the GI50 (CCRF-CEM) was > 100 µM (inactive). For the same molecule, the GI50 (OVCAR-4) was > 100 µM (inactive).

In the case of COc1ccc(CNc2cc(OC)c(OC)c(OC)c2)cc1, the GI50 (SNB-78) was 4.62 µM (inactive), the GI50 (LXFL 529) was 7.64 µM (inactive) and the GI50 (SNB-19) was 6.85 µM (inactive). For the same molecule, the GI50 (HCT-116) was 3.37 µM (inactive), the GI50 (EKVX) was 14.6 µM (inactive) and the GI50 (U-251) was 3.78 µM (inactive). The GI50 (ACHN) was 12.1 µM (inactive), the GI50 (KM12) was 2.25 µM (inactive) and the GI50 (UO-31) was 10.4 µM (inactive). The GI50 (HCT-15) was 3.52 µM, the GI50 (MOLT-4) was 3.98 µM (inactive) and the GI50 (COLO 205) was 2.84 µM (inactive). For the same molecule, the GI50 (SR) was 3.25 µM (inactive), the GI50 (CCRF-CEM) was 4.48 µM (inactive) and the GI50 (OVCAR-4) was 12.4 µM (inactive).

With COc1ccc(NC(=O)C2=CC(=O)c3ccc(O)cc3C2=O)c(OC)c1 the GI50 (SNB-78) was > 100 µM (inactive), the GI50 (LXFL 529) was > 100 µM (inactive) and the GI50 (SNB-19) was > 100 µM (inactive). For the same molecule, the GI50 (TK-10) was > 100 µM (inactive), the GI50 (HCT-116) was > 100 µM (inactive) and the GI50 (EKVX) was > 100 µM (inactive). The GI50 (U-251) was > 100 µM (inactive), the GI50 (ACHN) was > 100 µM (inactive) and the GI50 (KM12) was > 100 µM (inactive). The GI50 (HCT-15) was greater than 100 µM, the GI50 (MOLT-4) was > 100 µM (inactive) and the GI50 (COLO 205) was > 100 µM (inactive). For the same molecule, the GI50 (SR) was > 100 µM (inactive), the GI50 (CCRF-CEM) was > 100 µM (inactive) and the GI50 (OVCAR-4) was > 100 µM (inactive).

With O=c1ccn(/C=C/C(O)C(O)CO)c(=O)[nH]1 (stereo unspecified) the GI50 (SNB-78) was > 100 µM (inactive), the GI50 (LXFL 529) was > 100 µM (inactive) and the GI50 (SNB-19) was > 100 µM (inactive). For the same molecule, the GI50 (TK-10) was > 100 µM (inactive), the GI50 (HCT-116) was > 100 µM (inactive) and the GI50 (EKVX) was > 100 µM (inactive). For the same molecule, the GI50 (U-251) was > 100 µM (inactive), the GI50 (ACHN) was > 100 µM (inactive) and the GI50 (KM12) was 21.7 µM (inactive). For the same molecule, the GI50 (UO-31) was > 100 µM (inactive), the GI50 (HCT-15) was greater than 100 µM and the GI50 (MOLT-4) was > 100 µM (inactive). For the same molecule, the GI50 (COLO 205) was > 100 µM (inactive), the GI50 (CCRF-CEM) was > 100 µM (inactive) and the GI50 (OVCAR-4) was > 100 µM (inactive).

With Cc1cc(O)nc(NNC(C#N)c2c(O)ccc3ccccc23)n1 (stereo unspecified) the GI50 (SNB-78) was 19.3 µM (inactive), the GI50 (LXFL 529) was 8.79 µM (inactive) and the GI50 (TK-10) was 9.06 µM (inactive). For the same molecule, the GI50 (HCT-116) was 2.43 µM (inactive), the GI50 (U-251) was 2.91 µM (inactive) and the GI50 (ACHN) was 1.8 µM (inactive). The GI50 (KM12) was 4.29 µM (inactive), the GI50 (UO-31) was 1.73 µM (inactive) and the GI50 (HCT-15) was 1.82 µM. The GI50 (MOLT-4) was 2.34 µM (inactive), the GI50 (COLO 205) was 22.4 µM (inactive) and the GI50 (SR) was 2.7 µM (inactive). The GI50 (CCRF-CEM) was 1.73 µM (inactive) and the GI50 (OVCAR-4) was 3.32 µM (inactive).

With CCOc1ccc(NCC2CC/C(=C\c3ccc(Cl)cc3)C2=O)cc1 (stereo unspecified) the GI50 (SNB-78) was 98.9 µM (inactive), the GI50 (LXFL 529) was 13.1 µM (inactive) and the GI50 (SNB-19) was 49.1 µM (inactive). For the same molecule, the GI50 (TK-10) was 34.6 µM (inactive), the GI50 (HCT-116) was 31.1 µM (inactive) and the GI50 (EKVX) was 38.6 µM (inactive). For the same molecule, the GI50 (U-251) was 25.8 µM (inactive), the GI50 (ACHN) was > 40.6 µM (inactive) and the GI50 (KM12) was 14.2 µM (inactive). The GI50 (UO-31) was > 42.5 µM (inactive), the GI50 (HCT-15) was 7.73 µM and the GI50 (MOLT-4) was 16.8 µM (inactive). The GI50 (COLO 205) was > 37.9 µM (inactive), the GI50 (SR) was 12.1 µM (inactive) and the GI50 (CCRF-CEM) was 9.29 µM (inactive). The GI50 (OVCAR-4) was 39.7 µM (inactive).
